In patent US11464854B2, “Methods and compositions relating to adjuvants” (Children's Medical Center Corporation, priority 2017, dated 2022):

Key:
TNF = experiment: Rat pharmacodynamics: serum TNF by ELISA; format: in vivo, rats; conditions: rats, single IM or SC administration
[1] = system: influenza hemagglutinin (HA); experiment: Mouse immunization with influenza hemagglutinin (HA), HA-specific serum Ig by ELISA; format: in vivo, Balb/c mice; conditions: three times, Day 77
[2] = rats
[3] = system: cytokine and IFN-inducible gene expression in draining lymph nodes and spleen; format: in vivo, mice; conditions: mice
[4] = system: human neonatal and adult blood; experiment: Human whole blood assay, cytokine induction (3M-052, PCV13); format: cell-based; conditions: 6 hours, concentration-dependent, each agent alone
From the text: Human blood sample processing and in vitro stimulation. Peripheral blood was collected from healthy adult volunteers, while human newborn cord blood was collected immediately after Cesarean section delivery of the placenta. Births to known HIV-positive mothers were excluded. Human experimentation guidelines of the U.S. Department of Health and Human Services, The Brigham & Women's Hospital, Beth Israel Deaconess Medical Center Boston, and Boston Children's Hospital were observed, following protocols approved by the local institutional review boards. Human blood was anti-coagulated with 20 units/ml pyrogen-free sodium heparin (American Pharmaceutical Partners, Inc.; Schaumberg, Ill.). All blood products were kept at room temperature and processed within 4 hours from collection. […] Additionally, whole blood assay supernatants were analyzed by multiplex cytokine assays (Millipore; Billerica, Mass., USA). […]
TLR agonists and multi-analyte assays. […] Cytokine and chemokine expression profiles in cell culture supernatants and peripheral blood plasma were measured using customized Milliplex human and non-human primate cytokine/chemokine magnetic bead panels (Millipore), respectively. Assays were analyzed on the Luminex® 100/200™ System employing xPOTENT® software (Luminex; Austin, Tex.) and Millipore Milliplex Analyst (version 3.5.5.0).

human TLR8 = molecular target: T1, human TLR8 (Homo sapiens, UniProt Q9NR97); experiment: HEK293 NF-kB SEAP reporter assay, human TLR8; format: cell-based
T1 construct: host or cells: HEK293 with NF-kB-responsive SEAP reporter
T1 sequence (Q9NR97 27-1041): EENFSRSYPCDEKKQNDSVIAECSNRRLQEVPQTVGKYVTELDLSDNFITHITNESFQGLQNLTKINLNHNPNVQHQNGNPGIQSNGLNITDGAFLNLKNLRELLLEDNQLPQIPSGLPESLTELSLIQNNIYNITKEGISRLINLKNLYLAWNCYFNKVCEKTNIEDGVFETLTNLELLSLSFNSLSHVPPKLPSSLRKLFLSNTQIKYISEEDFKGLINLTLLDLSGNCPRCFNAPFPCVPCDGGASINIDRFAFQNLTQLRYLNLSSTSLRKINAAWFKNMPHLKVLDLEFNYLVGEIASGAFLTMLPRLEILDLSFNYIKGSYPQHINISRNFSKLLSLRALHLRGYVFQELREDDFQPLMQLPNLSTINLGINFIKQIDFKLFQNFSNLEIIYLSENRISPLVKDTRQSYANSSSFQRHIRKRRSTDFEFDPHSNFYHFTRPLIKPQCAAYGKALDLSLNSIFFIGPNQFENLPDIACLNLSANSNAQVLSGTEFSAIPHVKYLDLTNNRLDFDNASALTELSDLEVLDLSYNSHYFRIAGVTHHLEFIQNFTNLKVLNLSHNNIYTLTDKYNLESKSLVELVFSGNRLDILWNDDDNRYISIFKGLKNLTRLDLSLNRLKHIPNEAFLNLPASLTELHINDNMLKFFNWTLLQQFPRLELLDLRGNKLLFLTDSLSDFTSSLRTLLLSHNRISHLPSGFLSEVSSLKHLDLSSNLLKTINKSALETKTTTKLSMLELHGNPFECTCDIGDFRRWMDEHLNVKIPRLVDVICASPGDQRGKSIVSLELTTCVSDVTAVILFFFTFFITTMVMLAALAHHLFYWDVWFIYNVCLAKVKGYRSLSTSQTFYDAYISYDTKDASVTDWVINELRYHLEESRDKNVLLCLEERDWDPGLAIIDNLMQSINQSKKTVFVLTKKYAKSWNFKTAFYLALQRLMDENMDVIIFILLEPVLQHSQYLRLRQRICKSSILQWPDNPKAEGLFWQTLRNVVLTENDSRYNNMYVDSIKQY
Experimental: Human embryonic kidney (HEK)293 cells expressing human TLR7 or TLR8 with an NF-κB-responsive secreted embryonic alkaline phosphatase (SEAP) reporter gene were obtained from Novus Biologicals (Littleton, Colo.) and Invivogen (San Diego, Calif.), respectively. Cells were maintained in DMEM with 10% HI-FBS and selection antibiotics per the manufacturer's instructions. Cells were plated at 5×10^5 cells/96-well and stimulated with indicated agonist(s) for 24 h. Supernatants were harvested and analyzed for NF-κB/SEAP activation using the QuantiBlue™ kit (Invivogen). Values are expressed as fold change in OD650 over vehicle-only treated samples.

[5] = system: newborn cord blood mononuclear cells (CBMCs); experiment: Human newborn Th1 polarization assay; format: cell-based; conditions: 10 μM, with αCD3, 96 hrs
Experimental: Newborn cord blood mononuclear cells (CBMCs), a mixed mononuclear cell culture which is a largely naïve newborn T cell population, were stimulated with the TLR7/8 agonists in the presence of the polyclonal T cell activator αCD3 for 96 hours. T cell polarization was evaluated by IFNγ levels measured in cell-free supernatants by ELISA.

Row | SMILES | Blood tumor necrosis factor (TNF) concentrations, peak (TNF) | antigen-specific IgG levels (IgG1, IgG2a) ([1]; HA 10 μg with 0.01-1 mg/kg 3M-052 SC) | HA-specific IgG2a Ab production ([1]; added to Alum-adjuvanted HA 10 μg, 0.1 mg/kg 3M-052 SC) | 3M-052 in serum ([2]; 0.1 mg/kg, up to 24 hours post-dose) | serum 3M-052 peak ([2]; 1 mg/kg, 4 hour peak) [pmol/mL] | IFN-related and TLR7 gene expression in the spleens ([3]; SC administration) | cytokine mRNA expression ([3]; SC administration) | time of peak cytokine mRNA expression ([3]; single SC dose, lymph node tissue and splenocytes) [h] | production of TNF [4] | TLR7 vs. TLR8 selectivity (human TLR8; HEK293 assay) | potency for hTLR8 (human TLR8; among six IMQ and OA compounds, SEAP fold change) | IFNγ production by newborn T cells [5]
1 | CCCCCCCCCCCCCCCCCC(=O)NCCCCOn1c(CCCC)nc2c(N)nc3ccccc3c21 [3M-052, N-[4-[(4-amino-2-butyl-1H-imidazo[4,5-c]quinolin-1-yl)oxy]butyl]octadecanamide] | no induced systemic TNF detectable | enhances antigen-specific IgG levels | markedly enhances | not detectable | ~50 | robust | little if any | 6 | significantly inducing production of TNF over baseline | – | – | –
2 | CCCCc1nc2c(N)nc3ccccc3c2n1CCO [CRX-649] | – | – | – | – | – | – | – | – | – | preference for TLR8 | greatest potency | significantly enhanced ability to induce IFNγ production
